Measurements: patent US20240342239A1, “TREATMENT OF NON-CYSTIC FIBROSIS BRONCHIECTASIS” (Zambon S.P.A., priority 2021, published 2024)
“Also recorded” adds a separate entry of the source.

Columns and labels:
NCFB patients = details: cited from earlier work
[1] = tested on: bronchiectasis patients with P. aeruginosa; details: cited from earlier work; for time to first exacerbation compared to placebo: 1 MU twice daily through the I-neb, up to 6 months (PPCTP/001, Haworth 2014)
Pseudomonas aeruginosa = assay: PROMIS 1: P. aeruginosa density in sputum; type: in vivo; details: for Mean change from baseline in P. aeruginosa density: mITT
From the text: Least square means in each treatment group, least square mean difference between treatments, their 95% CIs and associated p-values have been estimated.
Summary statistics of the P. aeruginosa density (log 10 CFU/g sputum) and change from baseline (Visit 2) will be provided by treatment group for each trial visit.
Results of the quantitative analysis for P. aeruginosa density will be presented as colony forming units (CFU) count per gram sputum.

[2] = tested on: subjects with NCFB chronically infected with P. aeruginosa; assay: PROMIS 1 Phase III clinical study: NCFB pulmonary exacerbations, inhaled CMS via I-neb vs placebo; type: in vivo, human; details: for hazard ratio, time to first NCFB pulmonary exacerbation: CMS vs placebo, Cox proportional hazard model; for rate ratio of CMS relative to placebo, NCFB pulmonary exacerbation annual rate: LS Mean
Method: As used herein the term “pulmonary exacerbation” in a patient refers to the presence concurrently of at least 3 of the following 8 symptoms/signs for at least 24 hours: • increased cough; • increased sputum volume and/or consistency; • increased sputum purulence; • new or increased haemoptysis; • increased wheezing; • increased dyspnoea; • increased fatigue/malaise; • episodes of fever (temperature≥38° C.) • and it is clinically determined that the subject requires and is prescribed systemic antibiotic therapy. A new pulmonary exacerbation is only considered to occur if there are at least 14 days between the end of the course of systemic antibiotics and the onset of new qualifying symptoms. (Note: A pulmonary exacerbation is reported as an Adverse Event or serious AE [SAE]).
A “severe” pulmonary exacerbation is herein defined a pulmonary exacerbation requiring intravenous antibiotics and/or hospitalisation.
A supportive analysis has been conducted using an alternative definition of NCFB pulmonary exacerbation. The re-classification of exacerbations has been conducted in a blinded fashion (before database lock). The alternative definition of pulmonary exacerbations used will be deterioration in three or more of the following key symptoms for at least 48 hours: • Cough • Sputum volume and/or consistency • Sputum purulence • Breathlessness and/or exercise tolerance (dyspnoea) • Fatigue and/or malaise • Haemoptysis • And: • a physician determines a change in bronchiectasis treatment is required when other potential causes of clinical deterioration have been discounted.
The number of NCFB pulmonary exacerbations during the treatment period has been analysed using a Poisson regression model allowing for over-dispersion including treatment, pooled sites and use of stable concomitant therapy with oral macrolides as fixed effects and log-time on trial as an offset.
The number and the percentage of subjects with NCFB pulmonary exacerbations, the number of pulmonary exacerbations and the total follow-up time in years have been summarised by treatment group. The adjusted yearly mean exacerbation rates in each treatment group and the adjusted rate ratio with their 95% CIs has been estimated by the model.
For the analysis, 2 pulmonary exacerbations have been considered as a single episode in cases where the second exacerbation starts less than 14 days after the end of the antibiotic therapy (oral or intravenous) for the first pulmonary exacerbation.
The time to the first NCFB pulmonary exacerbation and the time to the first severe NCFB pulmonary exacerbation has been calculated as the time in days from the date of the first dose of IMP to the date at which the first pulmonary exacerbation occurs (i.e. date at which the first pulmonary exacerbation occurs—date of the first dose+1). A […] has been used to compare the treatment groups. Subjects completing the trial without NCFB pulmonary exacerbations or who are discontinued prematurely without exacerbations, will be considered as censored at the time of their last follow-up. […]
The primary variable for this trial is the mean annual NCFB pulmonary exacerbation rate (frequency of pulmonary exacerbations) over 12 months.

[3] = tested on: subjects with NCFB chronically infected with P. aeruginosa; assay: PROMIS 1: quality of life by Saint George's Respiratory Questionnaire (SGRQ); type: in vivo, human; details: at the end of the CMS treatment
From the text: The SGRQ total score and domain scores (Symptoms, Activity and Impact scores) has been summarised at each visit by treatment group using descriptive statistics. Changes from baseline (Visit 2) have been also summarised for each post-baseline visit by treatment group. Scores have been computed according to the SGRQ manual.
SGRQ total score has been analysed using a linear mixed model for repeated measures including treatment, visit, treatment-by-visit interaction, use of stable concomitant therapy with oral macrolides and pooled sites as fixed effects and baseline value as covariate. An unstructured covariance matrix has been assumed and the Kenward-Roger adjustment has been used for the degrees of freedom. The least square means in each treatment group, the least square mean differences between treatments, their 95% CIs and associated p-values at each visit will be estimated by the model.
It is described e.g. in U.S. Pat. No. 6,367,470.

[4] = sensitivity analysis, alternative definition of exacerbation

Compound: O=C(O)c1cn(C2CC2)c2cc(N3CCNCC3)c(F)cc2c1=O [ciprofloxacin]
- trial outcome, primary endpoints (NCFB patients; ORBIT-3 and RESPIRE-2 trials): failed to achieve their primary endpoints
- trial outcome, time of first exacerbation and rate of exacerbations vs placebo (NCFB patients; ORBIT-4 and RESPIRE-1 trials): showed clinical benefit

Compound: colistin
- time to first exacerbation compared to placebo [1]: not to be associated with a statistically significant improvement

Compound: colistimethate sodium [CMS]
- time to first exacerbation compared to placebo [1]: not statistically different from the placebo group
- frequency of adverse respiratory effects (cough, dyspnoea, bronchospasm, sore throat) ([1]; human, in vivo): at least 1 in 10 people
- admissions to emergency and days of hospitalization ([1]; observational study, 44 patients, 6 or 12 months, vs period preceding treatment (Lopez Gil Otero 2019)): reduced admissions to emergency and days of hospitalization
- LS mean difference in P. aeruginosa density, CMS vs placebo (Pseudomonas aeruginosa; after 1 month): −1.620
- Mean change from baseline in P. aeruginosa density (Pseudomonas aeruginosa; Visit 3 (28 days)): −1.59 log10(CFU/mL)
- Mean change from baseline in P. aeruginosa density (Pseudomonas aeruginosa; Visit 5 (6 months)): −1.39 log10(CFU/mL)
- Mean change from baseline in P. aeruginosa density (Pseudomonas aeruginosa; Visit 6 (9 months)): −1.56 log10(CFU/mL)
- Mean change from baseline in P. aeruginosa density (Pseudomonas aeruginosa; Visit 7 (12 months/EOT)): −0.86 log10(CFU/mL)
- course of P. aeruginosa density under treatment (Pseudomonas aeruginosa; over the study): fell rapidly and remained suppressed; also recorded: falls rapidly and remains suppressed
- subjects with severe NCFB pulmonary exacerbations ([2]; 19/176 subjects): 10.8%
- LS mean NCFB pulmonary exacerbation annual rate ([2]; PP Population): 0.491
- LS mean rate ratio of CMS relative to placebo ([2]; PP Population): 0.583
- reduction in pulmonary exacerbation rate vs placebo ([2]; PP Population): 42%
- mean annual exacerbation rate (LS Mean) ([2]; adherent subjects (adherence>80%)): 0.494
- median time to first severe NCFB pulmonary exacerbation, 25th and 75th percentile ([2]; human, in vivo): not reached
- reduction in the rate of severe pulmonary exacerbations compared to placebo ([2]; human, in vivo): 59%
- reduction in the risk of the first exacerbation event compared to placebo ([2]; mITT): 41%
- annual rate of exacerbations ([2]; mITT, CMS 1 MIU by I-neb twice a day, 12 months): 0.58 per patient per year
- hazard ratio, time to first NCFB pulmonary exacerbation ([2]; mITT): 0.590
- hazard ratio, time to first NCFB pulmonary exacerbation ([2]; mITT, listed as CMS I-neb): 0.59
- median time to first NCFB pulmonary exacerbation ([2]; mITT, from first dose of IMP): not reached
- subjects who experienced a pulmonary exacerbation during the study ([2]; mITT, n=68): 38.6%
- reduction in the annual rate of pulmonary exacerbations relative to placebo ([2]; mITT, primary analysis): 39%
- rate ratio of CMS relative to placebo, NCFB pulmonary exacerbation annual rate ([2]; mITT, primary analysis): 0.612
- rate ratio of CMS relative to placebo, NCFB pulmonary exacerbation annual rate ([2]; mITT, primary analysis, listed as CMS I-neb): 0.61
- LS Mean rate ratio, pulmonary exacerbations ([2]; post-hoc analyses with low-recruiting countries combined): 0.591
- LS mean NCFB pulmonary exacerbation annual rate ([2]; sensitivity analysis, alternative (ERS 2017) definition of exacerbation, mITT): 0.538
- LS mean rate ratio of CMS relative to placebo [2, 4]: 0.642
- reduction in pulmonary exacerbation rate vs placebo [2, 4]: 36%
- LS Mean severe NCFB pulmonary exacerbation annual rate ([2]; severe = requiring intravenous antibiotics and/or hospitalisation): 0.116
- LS Mean rate ratio of CMS relative to placebo, severe exacerbations ([2]; severe NCFB pulmonary exacerbations): 0.409
- treatment difference in SGRQ total score by LS means [3]: 4.552
